According to patent US9181273B2, “Morpholine-spirocyclic piperidine amides as modulators of ion channels” (Vertex Pharmaceuticals Incorporated, priority 2011, dated 2015):
pIC50: −log10 of the molar value.

These compounds were tested against human NaV subtype, like NaV 1.7 (Homo sapiens, UniProt Q15858) (assay: E-VIPR optical membrane potential assay with electrical stimulation). Settings: not given.
Type: cell-based
Source text: Sodium channels are voltage-dependent proteins that can be activated by inducing membrane voltage changes by applying electric fields. […] The instrument comprises a microtiter plate handler, an optical system for exciting the coumarin dye while simultaneously recording the coumarin and oxonol emissions, a waveform generator, a current- or voltage-controlled amplifier, and a device for inserting electrodes in well. Under integrated computer control, this instrument passes user-programmed electrical stimulus protocols to cells within the wells of the microtiter plate.
24 hours before the assay on E-VIPR, HEK cells expressing human NaV subtype, like NaV 1.7, are seeded in 384-well poly-lysine coated plates at 15,000-20,000 cells per well. Other subtypes are performed in an analogous mode in a cell line expressing the NaV of interest. […] Cells are grown in vented cap flasks, in 90% humidity and 10% CO2, to 100% confluence. They are usually split by trypsinization 1:10 or 1:20, depending on scheduling needs, and grown for 2-3 days before the next split.
To make the solution Add volume of 10% Pluronic F127 stock equal to volumes of CC2-DMPE+DiSBAC6(3). The order of preparation is first mix Pluronic and CC2-DMPE, then add DiSBAC6(3) while vortexing, then add Bath1+β-Cyclodextrin.
1) Pre-spot compounds (in neat DMSO) into compound plates. […] Final compound plate volume will be 80 μL (80-fold intermediate dilution from 1 μL DMSO spot; 160-fold final dilution after transfer to cell plate).
2) Prepare Hexyl Dye Solution.
3) Prepare cell plates. On the day of the assay, medium is aspirated and cells are washed three times with 100 μL of Bath1 Solution, maintaining 25 μL residual volume in each well.
4) Dispense 25 μL per well of Hexyl Dye Solution into cell plates. Incubate for 20-35 minutes at room temp or ambient conditions.
5) Dispense 80 μL per well of Bath1 into compound plates. Acid Yellow-17 (1 mM) is added and Potassium Chloride can be altered from 4.5 to 20 mM depending on the NaV subtype and assay sensitivity.
6) Wash cell plates three times with 100 μL per well of Bath1, leaving 25 μL of residual volume. Then transfer 25 uL per well from Compound Plates to Cell Plates. Incubate for 20-35 minutes at room temp/ambient condition
7) Read Plate on E-VIPR. Use the current-controlled amplifier to deliver stimulation wave pulses for typically 9 seconds and a scan rate of 400 Hz. A pre-stimulus recording is performed for 0.5 seconds to obtain the un-stimulated intensities baseline. The stimulatory waveform is applied for 9 seconds followed by 0.5 seconds of post-stimulation recording to examine the relaxation to the resting state. The stimulatory waveform of the electrical stimulation is specific for each cell type and can vary the magnitude, duration and frequency of the applied current to provide an optimal assay signal.
Data are analyzed and reported as normalized ratios of background-subtracted emission intensities measured in the 460 nm and 580 nm channels. Background intensities are then subtracted from each assay channel. Background intensities are obtained by measuring the emission intensities during the same time periods from identically treated assay wells in which there are no cells. The response as a function of time is then reported as the ratios obtained using the following formula: […]
The data is further reduced by calculating the initial (Ri) and final (Rf) ratios. These are the average ratio values during part or all of the pre-stimulation period, and during sample points during the stimulation period. The response to the stimulus R=Rf/Ri is then calculated and reported as a function of time.
Control responses are obtained by performing assays in the presence of a compound with the desired properties (positive control), such as tetracaine, and in the absence of pharmacological agents (negative control). Responses to the negative (N) and positive (P) controls are calculated as above. The compound antagonist activity A is defined as: […]

Sequence of human NaV subtype, like NaV 1.7 (Q15858 whole entry): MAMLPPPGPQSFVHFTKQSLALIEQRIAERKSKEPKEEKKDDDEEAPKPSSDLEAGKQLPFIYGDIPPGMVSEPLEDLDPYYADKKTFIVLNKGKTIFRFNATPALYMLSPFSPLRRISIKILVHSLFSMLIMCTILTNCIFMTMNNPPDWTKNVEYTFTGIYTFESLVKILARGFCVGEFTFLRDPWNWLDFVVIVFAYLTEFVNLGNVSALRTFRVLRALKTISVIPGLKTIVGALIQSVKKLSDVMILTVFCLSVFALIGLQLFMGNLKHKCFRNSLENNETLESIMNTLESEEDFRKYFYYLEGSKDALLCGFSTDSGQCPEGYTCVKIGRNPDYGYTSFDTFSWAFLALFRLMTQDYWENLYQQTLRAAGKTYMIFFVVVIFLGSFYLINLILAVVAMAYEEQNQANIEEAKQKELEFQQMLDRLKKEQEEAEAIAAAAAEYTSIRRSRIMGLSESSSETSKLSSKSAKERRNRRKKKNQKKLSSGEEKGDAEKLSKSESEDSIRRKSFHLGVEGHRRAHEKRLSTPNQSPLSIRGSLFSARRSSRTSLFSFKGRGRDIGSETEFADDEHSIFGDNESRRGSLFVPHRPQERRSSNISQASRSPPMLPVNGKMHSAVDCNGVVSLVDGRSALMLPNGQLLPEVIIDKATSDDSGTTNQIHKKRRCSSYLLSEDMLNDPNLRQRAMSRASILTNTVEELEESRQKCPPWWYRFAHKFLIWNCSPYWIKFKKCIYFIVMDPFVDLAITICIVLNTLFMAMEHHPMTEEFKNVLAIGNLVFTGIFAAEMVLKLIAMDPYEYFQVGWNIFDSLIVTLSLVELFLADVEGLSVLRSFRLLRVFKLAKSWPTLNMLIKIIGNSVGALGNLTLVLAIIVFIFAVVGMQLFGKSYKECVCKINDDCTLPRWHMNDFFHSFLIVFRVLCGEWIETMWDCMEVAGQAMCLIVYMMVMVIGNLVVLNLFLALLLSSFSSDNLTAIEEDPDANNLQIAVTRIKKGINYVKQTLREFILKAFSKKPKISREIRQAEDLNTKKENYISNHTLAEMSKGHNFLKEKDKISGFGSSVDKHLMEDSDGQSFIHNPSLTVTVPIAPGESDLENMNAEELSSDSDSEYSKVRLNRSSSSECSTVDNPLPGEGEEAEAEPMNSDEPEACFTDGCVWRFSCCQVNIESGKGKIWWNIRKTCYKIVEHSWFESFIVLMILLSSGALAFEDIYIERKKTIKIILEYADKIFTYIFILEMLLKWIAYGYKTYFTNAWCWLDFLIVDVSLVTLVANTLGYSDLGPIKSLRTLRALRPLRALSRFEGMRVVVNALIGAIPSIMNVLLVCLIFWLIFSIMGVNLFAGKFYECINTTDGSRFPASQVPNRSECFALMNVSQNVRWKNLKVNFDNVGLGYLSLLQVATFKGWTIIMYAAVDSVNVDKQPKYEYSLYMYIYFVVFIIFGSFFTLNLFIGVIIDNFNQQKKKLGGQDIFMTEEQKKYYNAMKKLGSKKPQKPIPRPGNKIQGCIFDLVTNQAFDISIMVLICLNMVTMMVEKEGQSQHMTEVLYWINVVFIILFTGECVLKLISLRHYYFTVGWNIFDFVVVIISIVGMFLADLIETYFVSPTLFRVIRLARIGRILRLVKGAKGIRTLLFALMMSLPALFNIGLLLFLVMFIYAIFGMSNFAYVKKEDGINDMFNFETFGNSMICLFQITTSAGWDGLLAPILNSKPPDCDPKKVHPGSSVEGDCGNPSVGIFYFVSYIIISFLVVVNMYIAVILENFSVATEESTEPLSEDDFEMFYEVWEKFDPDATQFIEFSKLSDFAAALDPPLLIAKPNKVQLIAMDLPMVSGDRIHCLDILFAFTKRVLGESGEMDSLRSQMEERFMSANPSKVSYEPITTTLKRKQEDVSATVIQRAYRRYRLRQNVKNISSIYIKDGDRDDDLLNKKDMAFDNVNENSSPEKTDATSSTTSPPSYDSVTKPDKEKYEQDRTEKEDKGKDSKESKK

SMILES | pIC50
COc1cc(C(=O)N2CCC3(CC2)CN(CC(F)F)CC(c2ccccn2)O3)ccc1OC(C)C (centres unmarked) [Compound 3] | > 5.70

Same assay, conditions: active against one or more sodium channels; assay and NaV subtype not specified for Table 3; read-out: IC50 Binned Activity Data

SMILES | pIC50
CCC1CN(c2ncccn2)CC2(CCN(C(=O)c3ccc(C(O)(CC)CC)c(C)c3)CC2)O1 (centres unmarked) [Compound 1] | 5.30 to 5.70
Cc1cc(C(=O)N2CCC3(CC2)CN(Cc2ccccc2)CC(CCO)O3)ccc1OC(C)C (centres unmarked) [Compound 2] | < 5.30
CC(C)Oc1ccc(C(=O)N2CCC3(CC2)CN(CC(F)F)CC(c2ccc(F)cc2)O3)cc1CO (centres unmarked) [Compound 4] | 5.30 to 5.70
COCC1CN(C2CCC(C)CC2)CC2(CCN(C(=O)c3ccc(OC(C)C)c(C)c3)CC2)O1 (centres unmarked) [Compound 5] | > 5.70
Cc1cc(C(=O)N2CCC3(CC2)CN(c2ncccn2)CCO3)ccc1OC(C)C [Compound 6] | 5.30 to 5.70
Cc1cc(C(=O)N2CCC3(CC2)CN(C)CC(c2ccccc2)O3)ccc1OC(C)C (centres unmarked) [Compound 7] | > 5.70
COCC1CN(c2ncccn2)CC2(CCN(C(=O)c3ccc(S(=O)(=O)C(F)F)cc3)CC2)O1 (centres unmarked) [Compound 8] | 5.30 to 5.70
CCN1CC2(CCN(C(=O)c3ccc(OC(C)C)c(C)c3)CC2)OC(c2ccccc2)C1=O (centres unmarked) [Compound 9] | 5.30 to 5.70
CCN1CC2(CCN(C(=O)c3ccc(OC(C)C)c(C)c3)CC2)OCC1c1ccccc1 (centres unmarked) [Compound 10] | > 5.70
Cc1cc(C(=O)N2CCC3(CC2)CN(CC(F)F)CC(c2ccnn2C)O3)ccc1OC(C)C (centres unmarked) [Compound 11] | > 5.70
CC(C)(C)S(=O)(=O)c1ccc(C(=O)N2CCC3(CC2)CN(CC(F)(F)F)CC(c2ccccc2)O3)cc1 (centres unmarked) [Compound 12] | > 5.70
CC(C)(C)Oc1ccc(C(=O)N2CCC3(CC2)CN(CC(F)(F)F)CC(c2ccccc2)O3)nc1 (centres unmarked) [Compound 13] | > 5.70
COCC1CN(Cc2ccccn2)CC2(CCN(C(=O)c3ccc(OC(C)C)c(C)c3)CC2)O1 (centres unmarked) [Compound 14] | < 5.30
COCC1CN(c2ncccn2)CC2(CCN(C(=O)c3ccc(OC(C)C)c(CO)c3)CC2)O1 (centres unmarked) [Compound 15] | < 5.30
COCC1CN(c2cccc(C)n2)CC2(CCN(C(=O)c3ccc(OC(C)C)c(C)c3)CC2)O1 (centres unmarked) [Compound 16] | > 5.70
CCC1CN(c2ccccn2)CC2(CCN(C(=O)c3ccc(C4(O)CCCC4)c(F)c3)CC2)O1 (centres unmarked) [Compound 17] | > 5.70
CCC1CN(C(C)(C)C)CC2(CCN(C(=O)c3ccc(OC(C)C)c(C)c3)CC2)O1 (centres unmarked) [Compound 18] | > 5.70
COCC1CN(c2ncccn2)CC2(CCN(C(=O)c3ccc(OC(C)C)c(F)c3)CC2)O1 (centres unmarked) [Compound 19] | > 5.70
CCn1nccc1C1CN(CC(F)F)CC2(CCN(C(=O)c3ccc(OC(C)C)c(C)c3)CC2)O1 (centres unmarked) [Compound 20] | > 5.70
Cc1cc(C(=O)N2CCC3(CC2)CN(CC(F)F)CC(c2cc[nH]n2)O3)ccc1OC(C)C (centres unmarked) [Compound 21] | > 5.70

SMILES | pIC50
CCN1CC(c2ccccc2)OC2(CCN(C(=O)c3ccc(OC(C)C)c(C)c3)CC2)C1 (centres unmarked) [Compound 22] | > 5.70
COCC1CN(CC#N)CC2(CCN(C(=O)c3ccc(OC(C)C)c(C)c3)CC2)O1 (centres unmarked) [Compound 23] | < 5.30
Cc1cc(C(=O)N2CCC3(CC2)CN(CC(C)(C)O)CC(c2ccccc2)O3)ccc1OC(C)C (centres unmarked) [Compound 24] | > 5.70
Cc1cc(C(=O)N2CCC3(CC2)CN(CCO)CC(c2ccccc2)O3)ccc1OC(C)C (centres unmarked) [Compound 25] | 5.30 to 5.70
Cc1cc(C2CN(CC(F)(F)F)CC3(CCN(C(=O)c4ccc(OC(C)C)c(C)c4)CC3)O2)n[nH]1 (centres unmarked) [Compound 26] | 5.30 to 5.70
Cc1cc(C(=O)N2CCC3(CC2)CN(CC(F)F)CC(c2ccc(F)cc2)O3)ccc1OC(C)C (centres unmarked) [Compound 27] | > 5.70
CCN1CC(C)(C)OC2(CCN(C(=O)c3ccc(OC(C)C)c(C)c3)CC2)C1 [Compound 28] | < 5.30
Cc1cc(C(=O)N2CCC3(CC2)CN(CC(C)C)CC(c2ccccc2)O3)ccc1OC(C)C (centres unmarked) [Compound 29] | > 5.70
CC#CCN1CC(CC)OC2(CCN(C(=O)c3ccc(OC)c(C(F)(F)F)c3)CC2)C1 (centres unmarked) [Compound 30] | < 5.30
COCC1CN(c2ccncc2)CC2(CCN(C(=O)c3ccc(OC(C)C)c(C)c3)CC2)O1 (centres unmarked) [Compound 31] | < 5.30
COCC1CN(C)CC2(CCN(C(=O)c3ccc(OC(C)C)c(C)c3)CC2)O1 (centres unmarked) [Compound 32] | < 5.30
Cc1cc(C(=O)N2CCC3(CC2)CN(CC(F)F)CC(c2ccccn2)O3)ccc1OC(C)C (centres unmarked) [Compound 33] | > 5.70
CCC1CN(CC)CC2(CCN(C(=O)c3ccc(OC(C)C)c(C)c3)CC2)O1 (centres unmarked) [Compound 34] | < 5.30
Cc1cc(C(=O)N2CCC3(CC2)CN(CC(F)F)CC(c2nccn2C)O3)ccc1OC(C)C (centres unmarked) [Compound 35] | < 5.30
COC(=O)c1ccnc(N2CC(CO)OC3(CCN(C(=O)c4ccc(OC(C)C)c(C)c4)CC3)C2)n1 (centres unmarked) [Compound 36] | < 5.30
Cc1cccc(C2CN(CC(F)F)CC3(CCN(C(=O)c4ccc(OC(C)C)c(C)c4)CC3)O2)n1 (centres unmarked) [Compound 37] | > 5.70
CC(C)Oc1ccc(C(=O)N2CCC3(CC2)CN(CC(F)(F)F)CC(c2cc[nH]n2)O3)cc1F (centres unmarked) [Compound 38] | 5.30 to 5.70
CC(C)(O)Cc1ccc(C(=O)N2CCC3(CC2)CN(CC(F)(F)F)CC(c2ccccc2)O3)cc1F (centres unmarked) [Compound 39] | 5.30 to 5.70
CCC1COC2(CCN(C(=O)c3ccc(OC(C)C)c(C)c3)CC2)CN1CC (centres unmarked) [Compound 40] | < 5.30
CCC1CN(c2ccccn2)CC2(CCN(C(=O)c3ccc(C(C)(C)O)c(F)c3)CC2)O1 (centres unmarked) [Compound 41] | > 5.70

SMILES | pIC50
Cc1nc(C(=O)N2CCC3(CC2)CN(CC(F)(F)F)CC(c2ccccc2)O3)ccc1OC(C)C (centres unmarked) [Compound 42] | > 5.70
CCN1CC2(CCN(C(=O)c3ccc(OC(C)C)c(OC)c3)CC2)OCC1c1ccccc1 (centres unmarked) [Compound 43] | 5.30 to 5.70
Cc1cc(C(=O)N2CCC3(CC2)CN(CC(F)F)CC(c2ccccc2F)O3)ccc1OC(C)C (centres unmarked) [Compound 44] | > 5.70
CC(C)Oc1ccc(C(=O)N2CCC3(CC2)CN(CC(F)F)CC(c2ccccc2F)O3)cc1F (centres unmarked) [Compound 45] | > 5.70
CCC1CN(CC2CC2)CC2(CCN(C(=O)c3ccc(OC(C)C)c(C)c3)CC2)O1 (centres unmarked) [Compound 46] | > 5.70
COCC1CN(CC2CCC2)CC2(CCN(C(=O)c3ccc(OC(C)C)c(C)c3)CC2)O1 (centres unmarked) [Compound 47] | > 5.70
CCC(CC)N1CC(COC)OC2(CCN(C(=O)c3ccc(OC(C)C)c(C)c3)CC2)C1 (centres unmarked) [Compound 48] | > 5.70
Cc1cnc(C2CN(C(C)(C)C)CC3(CCN(C(=O)c4ccc(OC(C)C)c(C)c4)CC3)O2)o1 (centres unmarked) [Compound 49] | > 5.70
CCC1CN(c2ncccn2)CC2(CCN(C(=O)c3ccc(C4(O)CCCC4)c(C)c3)CC2)O1 (centres unmarked) [Compound 50] | > 5.70
Cc1cc(C(=O)N2CCC3(CC2)CN(c2ncccn2)C(C)(C)CO3)ccc1OC(C)C [Compound 51] | < 5.30
CC#CCN1CC(CC)OC2(CCN(C(=O)c3ccc(OC(C)C)c(Cl)c3)CC2)C1 (centres unmarked) [Compound 52] | > 5.70
COCC1CN(c2ncccn2)CC2(CCN(C(=O)c3ccc(C(C)(C)O)c(F)c3)CC2)O1 (centres unmarked) [Compound 53] | 5.30 to 5.70
CCC1CN(c2ccccn2)CC2(CCN(C(=O)c3ccc(C4(O)CCCCC4)cc3)CC2)O1 (centres unmarked) [Compound 54] | > 5.70
CCOCCN1CC(COC)OC2(CCN(C(=O)c3ccc(OC(C)C)c(C)c3)CC2)C1 (centres unmarked) [Compound 55] | > 5.70
COCC#Cc1ccc(C(=O)N2CCC3(CC2)CN(CC(F)(F)F)CC(c2ccccc2)O3)cc1F (centres unmarked) [Compound 56] | 5.30 to 5.70
CC(C)(O)c1ccc(C(=O)N2CCC3(CC2)CN(CC(F)F)CC(c2ccccn2)O3)cc1F (centres unmarked) [Compound 57] | 5.30 to 5.70
COCC1CN(c2cccc(C(F)(F)F)c2)CC2(CCN(C(=O)c3ccc(C(C)(C)O)c(F)c3)CC2)O1 (centres unmarked) [Compound 58] | > 5.70
O=C(c1ccc(C(O)C2CC2)cc1)N1CCC2(CC1)CN(CC(F)(F)F)CC(c1ccccc1)O2 (centres unmarked) [Compound 59] | > 5.70
